Assay results taken from patent US20090227507A1, “Angiotensin (1-7) Dosage Forms and Uses Thereof” (UNIVERSITY OF SOUTHERN CALIFORNIA, priority 2008, published 2009).

Assay: Unspecified test of effectiveness of AII fragments

Row | Substance | effectiveness
1 | His-Pro-Phe [AII(6-8)] | not to be effective
2 | Tyr-Ile-His-Pro-Phe (YIHPF; printed: Tyr-Ile-His-Pro-Phe) [AII(4-8)] | not to be effective
